{"source": "patent US6437128B1", "about": "“Cribrostatins 3-5” (Arizona Board of Regents, priority 2001, dated 2002)", "key": {"MDA-N": {"test_system": "MDA-N", "assay": "NCI 60-cell screen", "format": "cell-based, human", "settings": "Homo sapiens, averaged, quadruplicate, upper limit 10^−5 M, read-out: negative log10 GI50 (converted)"}, "HOP-62": {"test_system": "HOP-62", "assay": "NCI 60-cell screen", "format": "cell-based, human", "settings": "Homo sapiens, averaged, quadruplicate, upper limit 10^−5 M, read-out: negative log10 GI50 (converted)"}, "SK-MEL-5": {"test_system": "SK-MEL-5", "assay": "NCI 60-cell screen", "format": "cell-based, human", "settings": "Homo sapiens, averaged, quadruplicate, upper limit 10^−5 M, read-out: negative log10 GI50 (converted)"}, "RPMI-8226": {"test_system": "RPMI-8226", "assay": "NCI 60-cell screen", "format": "cell-based, human", "settings": "Homo sapiens, averaged, quadruplicate, upper limit 10^−5 M, read-out: negative log10 GI50 (converted)"}, "HS578T": {"test_system": "HS578T", "assay": "NCI 60-cell screen", "format": "cell-based, human", "settings": "Homo sapiens, Hs-578T, averaged, quadruplicate, upper limit 10^−5 M, read-out: negative log10 GI50 (converted)"}, "OVCAR4": {"test_system": "OVCAR4", "assay": "NCI 60-cell screen", "format": "cell-based, human", "settings": "Homo sapiens, OVCAR-4, averaged, quadruplicate, upper limit 10^−5 M, read-out: negative log10 GI50 (converted)"}, "[1]": {"test_system": "Invasive S. pneumoniae (clinical isolate)", "assay": "Antimicrobial disk diffusion", "format": "cell-based"}, "[2]": {"test_system": "Neisseria gonorrhoeae (ATCC 49226)", "assay": "Antimicrobial disk diffusion", "format": "cell-based"}, "MCF7/ADR-RES": {"test_system": "MCF7/ADR-RES", "assay": "NCI 60-cell screen", "format": "cell-based, human", "settings": "Homo sapiens, averaged, quadruplicate, upper limit 10^−5 M, read-out: negative log10 GI50 (converted)"}, "[3]": {"test_system": "Cryptococcus neoformans (ATCC 90112)", "assay": "Antimicrobial disk diffusion", "format": "cell-based"}, "MCF7": {"test_system": "MCF7", "assay": "NCI 60-cell screen", "format": "cell-based, human", "settings": "Homo sapiens, averaged, quadruplicate, upper limit 10^−5 M, read-out: negative log10 GI50 (converted)"}, "LOX IMVI": {"test_system": "LOX IMVI", "assay": "NCI 60-cell screen", "format": "cell-based, human", "settings": "Homo sapiens, averaged, quadruplicate, upper limit 10^−5 M, read-out: negative log10 GI50 (converted)"}, "CCRF-CEM": {"test_system": "CCRF-CEM", "assay": "NCI 60-cell screen", "format": "cell-based, human", "settings": "Homo sapiens, averaged, quadruplicate, upper limit 10^−5 M, read-out: negative log10 GI50 (converted)"}, "[4]": {"test_system": "Enterobacter cloacae (ATCC 13047)", "assay": "Antimicrobial disk diffusion", "format": "cell-based"}, "RXF-393": {"test_system": "RXF-393", "assay": "NCI 60-cell screen", "format": "cell-based, human", "settings": "Homo sapiens, averaged, quadruplicate, upper limit 10^−5 M, read-out: negative log10 GI50 (converted)"}, "[5]": {"test_system": "NCI 60-cell in vitro panel", "assay": "NCI 60-cell in vitro panel, mean panel", "format": "cell-based, human", "settings": "Homo sapiens, 60 cell; average ±SEM from the 40 cell lines that yielded GI50 values for both 4a and 5", "text": "(§1) Individual cell line response values are provided in the Experimental."}, "NCI-H522": {"test_system": "NCI-H522", "assay": "NCI 60-cell screen", "format": "cell-based, human", "settings": "Homo sapiens, averaged, quadruplicate, upper limit 10^−5 M, read-out: negative log10 GI50 (converted)"}, "SF-539": {"test_system": "SF-539", "assay": "NCI 60-cell screen", "format": "cell-based, human", "settings": "Homo sapiens, averaged, quadruplicate, upper limit 10^−5 M, read-out: negative log10 GI50 (converted)"}, "SF-268": {"test_system": "SF-268", "assay": "NCI 60-cell screen", "format": "cell-based, human", "settings": "Homo sapiens, averaged, quadruplicate, upper limit 10^−5 M, read-out: negative log10 GI50 (converted)"}, "[6]": {"test_system": "Stenotrophomonas maltophilia (ATCC 13637)", "assay": "Antimicrobial disk diffusion", "format": "cell-based"}, "[7]": {"test_system": "Candida albicans (ATCC 90028)", "assay": "Antimicrobial disk diffusion", "format": "cell-based"}, "[8]": {"test_system": "Staphylococcus aureus (ATCC 29213)", "assay": "Antimicrobial disk diffusion", "format": "cell-based"}, "A549/ATCC": {"test_system": "A549/ATCC", "assay": "NCI 60-cell screen", "format": "cell-based, human", "settings": "Homo sapiens, averaged, quadruplicate, upper limit 10^−5 M, read-out: negative log10 GI50 (converted)"}, "[9]": {"test_system": "P388 lymphocytic leukemia", "assay": "in vitro murine P388 lymphocytic leukemia (PS) cell growth inhibition", "format": "cell-based", "text": "The fractions obtained from the 1988-89 recollection of Cribrochalina so. (See: Pettit, G. R.; Collins, J. C.; Herald, D. L.; Doubek, D. L.; Boyd, M. R.; Schmidt, J. M.; Hooper, J. N. A.; Tackett, L. P. Can. J. Cheim. 1992, 70, 1170-1175) beginning with the 195 g dichloromethane partition fraction were re-examined guided by bioassay results using the murine P388 lymphocytic leukemia.\nas §1"}, "SNB-75": {"test_system": "SNB-75", "assay": "NCI 60-cell screen", "format": "cell-based, human", "settings": "Homo sapiens, averaged, quadruplicate, upper limit 10^−5 M, read-out: negative log10 GI50 (converted)"}, "IGROV1": {"test_system": "IGROV1", "assay": "NCI 60-cell screen", "format": "cell-based, human", "settings": "Homo sapiens, IGROV-1, averaged, quadruplicate, upper limit 10^−5 M, read-out: negative log10 GI50 (converted)"}, "BXPC-3 (Pancreas-a)": {"test_system": "BXPC-3 (Pancreas-a)", "assay": "ASU-CRI minipanel of human cancer cell lines", "format": "cell-based", "settings": "Homo sapiens; Pancreas-a BXPC-3; read-out: GI50", "text": "as §1"}, "[10]": {"test_system": "Enterococcus faecalis (ATCC 29212)", "assay": "Antimicrobial disk diffusion", "format": "cell-based"}, "ACHN": {"test_system": "ACHN", "assay": "NCI 60-cell screen", "format": "cell-based, human", "settings": "Homo sapiens, averaged, quadruplicate, upper limit 10^−5 M, read-out: negative log10 GI50 (converted)"}, "MDA-MB-435": {"test_system": "MDA-MB-435", "assay": "NCI 60-cell screen", "format": "cell-based, human", "settings": "Homo sapiens, averaged, quadruplicate, upper limit 10^−5 M, read-out: negative log10 GI50 (converted)"}, "HOP-92": {"test_system": "HOP-92", "assay": "NCI 60-cell screen", "format": "cell-based, human", "settings": "Homo sapiens, averaged, quadruplicate, upper limit 10^−5 M, read-out: negative log10 GI50 (converted)"}, "U251": {"test_system": "U251", "assay": "NCI 60-cell screen", "format": "cell-based, human", "settings": "Homo sapiens, U-251, averaged, quadruplicate, upper limit 10^−5 M, read-out: negative log10 GI50 (converted)"}, "SR": {"test_system": "SR", "assay": "NCI 60-cell screen", "format": "cell-based, human", "settings": "Homo sapiens, averaged, quadruplicate, upper limit 10^−5 M, read-out: negative log10 GI50 (converted)"}, "T-47D": {"test_system": "T-47D", "assay": "NCI 60-cell screen", "format": "cell-based, human", "settings": "Homo sapiens, T47D, averaged, quadruplicate, upper limit 10^−5 M, read-out: negative log10 GI50 (converted)"}, "MALME-3M": {"test_system": "MALME-3M", "assay": "NCI 60-cell screen", "format": "cell-based, human", "settings": "Homo sapiens, averaged, quadruplicate, upper limit 10^−5 M, read-out: negative log10 GI50 (converted)"}, "COLO 205": {"test_system": "COLO 205", "assay": "NCI 60-cell screen", "format": "cell-based, human", "settings": "Homo sapiens, averaged, quadruplicate, upper limit 10^−5 M, read-out: negative log10 GI50 (converted)"}, "SN12C": {"test_system": "SN12C", "assay": "NCI 60-cell screen", "format": "cell-based, human", "settings": "Homo sapiens, averaged, quadruplicate, upper limit 10^−5 M, read-out: negative log10 GI50 (converted)"}, "786-O": {"test_system": "786-O", "assay": "NCI 60-cell screen", "format": "cell-based, human", "settings": "Homo sapiens, 786-0, averaged, quadruplicate, upper limit 10^−5 M, read-out: negative log10 GI50 (converted)"}, "[11]": {"test_system": "Bacillus subtilis (Presque Isle 620)", "assay": "Antimicrobial disk diffusion", "format": "cell-based", "settings": "listed as 5"}, "[12]": {"test_system": "Streptococcus pneumoniae (ATCC 6303)", "assay": "Antimicrobial disk diffusion", "format": "cell-based", "settings": "listed as 5"}, "[13]": {"test_system": "Micrococcus luteus (Presque Isle 456)", "assay": "Antimicrobial disk diffusion", "format": "cell-based", "settings": "listed as 5"}}, "note": "Where “and” joins values, the source holds several entries; their conditions need not be identical. Identical values can stand only once."}
{"smiles": "C/C=C(/C)C(=O)OC[C@H]1C2=C(C=C3[C@H]4c5c(O)c(OC)c(C)c(O)c5C(=O)[C@@H](C(=O)N31)N4C)C(=O)C(C)=C(OC)C2=O", "note": "[Cribrostatin 4, cribrostatin 4]", "values": [{"measurement": "GI50", "setting": "MDA-N", "result": 2190, "unit": "nM"}, {"measurement": "GI50", "setting": "HOP-62", "result": 7.59, "unit": "µM"}, {"measurement": "GI50", "setting": "SK-MEL-5", "result": 8.13, "unit": "µM"}, {"measurement": "GI50", "setting": "RPMI-8226", "result": 6.17, "unit": "µM"}, {"measurement": "GI50", "setting": "HS578T", "result": 8.71, "unit": "µM"}, {"measurement": "GI50", "setting": "OVCAR4", "result": 1820, "unit": "nM"}, {"measurement": "Minimum inhibitory concentration", "setting": "[1]", "result": "* (No inhibition at 100 μg/disk)"}, {"measurement": "Minimum inhibitory concentration", "setting": "[2]", "result": "6.25-12.5 μg/disk"}, {"measurement": "GI50", "setting": "MCF7/ADR-RES", "result": 6.76, "unit": "µM"}, {"measurement": "Minimum inhibitory concentration", "setting": "[3]", "result": "* (No inhibition at 100 μg/disk)"}, {"measurement": "GI50", "setting": "MCF7", "result": 8.13, "unit": "µM"}, {"measurement": "GI50", "setting": "LOX IMVI", "result": 3.31, "unit": "µM"}, {"measurement": "GI50", "setting": "CCRF-CEM", "result": 1700, "unit": "nM"}, {"measurement": "Minimum inhibitory concentration", "setting": "[4]", "result": "* (No inhibition at 100 μg/disk)"}, {"measurement": "GI50", "setting": "RXF-393", "result": 5.25, "unit": "µM"}, {"measurement": "GI50", "setting": "[5]", "result": 5.01, "unit": "µM"}, {"measurement": "GI50", "setting": "NCI-H522", "result": 4.17, "unit": "µM"}, {"measurement": "GI50", "setting": "SF-539", "result": 5.75, "unit": "µM"}, {"measurement": "GI50", "setting": "SF-268", "result": 9.55, "unit": "µM"}, {"measurement": "Minimum inhibitory concentration", "setting": "[6]", "result": "* (No inhibition at 100 μg/disk)"}, {"measurement": "Minimum inhibitory concentration", "setting": "[7]", "result": "* (No inhibition at 100 μg/disk)"}, {"measurement": "Minimum inhibitory concentration", "setting": "[8]", "result": "* (No inhibition at 100 μg/disk)"}, {"measurement": "GI50", "setting": "A549/ATCC", "result": 8.71, "unit": "µM"}, {"measurement": "GI50", "setting": "[9]; Mouse Leukemia P388, read-out: GI50", "result": 24.6, "unit": "µg/mL"}, {"measurement": "PS ED50 (P388 ED50)", "setting": "[9]; in vitro P388 lymphocytic leukemia, listed as cribrostatin 4", "result": "25 µg/mL and 24 µg/mL"}, {"measurement": "GI50", "setting": "SNB-75", "result": 5.62, "unit": "µM"}, {"measurement": "GI50", "setting": "IGROV1", "result": 8.51, "unit": "µM"}, {"measurement": "GI50", "setting": "BXPC-3 (Pancreas-a)", "result": 5.6, "unit": "µg/mL"}, {"measurement": "Minimum inhibitory concentration", "setting": "[10]", "result": "* (No inhibition at 100 μg/disk)"}, {"measurement": "GI50", "setting": "ACHN", "result": 7.94, "unit": "µM"}, {"measurement": "GI50", "setting": "MDA-MB-435", "result": 1820, "unit": "nM"}, {"measurement": "GI50", "setting": "HOP-92", "result": 8.13, "unit": "µM"}, {"measurement": "GI50", "setting": "U251", "result": 6.46, "unit": "µM"}, {"measurement": "GI50", "setting": "SR", "result": 3.8, "unit": "µM"}, {"measurement": "GI50", "setting": "T-47D", "result": 2090, "unit": "nM"}, {"measurement": "GI50", "setting": "MALME-3M", "result": 389, "unit": "nM"}, {"measurement": "GI50", "setting": "COLO 205", "result": 8.13, "unit": "µM"}, {"measurement": "GI50", "setting": "SN12C", "result": 7.08, "unit": "µM"}, {"measurement": "GI50", "setting": "786-O", "result": 6.17, "unit": "µM"}, {"measurement": "Minimum inhibitory concentration", "setting": "[11]", "result": "12.5-25 μg/disk"}, {"measurement": "Minimum inhibitory concentration", "setting": "[12]", "result": "6.25-12.5 μg/disk"}, {"measurement": "Minimum inhibitory concentration", "setting": "[13]", "result": "* (No inhibition at 100 μg/disk)"}]}
